Assay results: US20250161216A1, “CATIONIC LIPID ANALOGUES, COMPOSITIONS AND USES THEREOF” (GUANGZHOU LIDE BIOMEDICINE TECHNOLOGY CO., LTD., priority 2022, published 2025)

Legend:
[1] = Characterization of the lipid nanoparticles prepared in Example 6; type: physicochemical; conditions: cationic lipid analogue:cholesterol:DSPC:DMG-PEG 50:38.5:10:1.5
Text: The drug-loaded nanoparticle included a cationic lipid analogue, cholesterol, distearoylphosphatidylcholine (DSPC), and 1,2-dimyristoyl-rac-glycerol-3-methoxypolyethylene glycol (DMG-PEG), • wherein a molar ratio of the cationic lipid analogue:cholesterol:DSPC:DMG-PEG was 50:38.5:10:1.5.
In the drug-loaded nanoparticle, a mass ratio of the cationic lipid analogue to the nucleic acid drug, such as mRNA or siRNA, etc., was 11:1.
A cationic lipid analogue, cholesterol, DSPC, and DMG-PEG were dissolved in an ethanol solution, and mixed in the above-mentioned molar ratio to obtain an organic phase. Then, an mRNA nucleic acid drug at a corresponding mass ratio was dissolved in a sodium acetate buffer solution (25 mM, pH=3.0) to obtain an aqueous phase, so that a volume ratio of the aqueous phase to the organic phase was 3:1. Then, the aqueous phase was quickly added to the organic phase and mixed evenly, and the mixture was allowed to stand for 10 minutes. After that, the mixture was put into a 1000 Da dialysis bag, and dialyzed in a 1×PBS solution at 4° C. for 2 hours to obtain the nanoparticle that can be directly used for injection.

[2] = test system: C57BL/6 mice; test: In vivo expression level of Luciferase-mRNA delivered by tracheal injection (bioluminescence imaging); conditions: mRNA-loaded nanoparticles, 5 μg Luciferase-mRNA, 6 hours
Method: (§1) Luciferase-mRNA was used as an mRNA model; and the cationic lipid analogue A1I4R22C18-2 of Example 2 was used to prepare drug-loaded nanoparticles according to the method of Example 6.
100 μL of nanoparticles containing 5 μg Luciferase-mRNA or the drug-loaded nanoparticles prepared above were tracheally injected into 6-8 week-old C57BL/6 mice, and 200 μL of 1×PBS solution containing 3 mg D-Luciferin potassium salt was intraperitoneally injected into the mice 6 hours later. After waiting for 10 min, an in vivo mRNA expression level was evaluated by bioluminescence imaging.

[3] = test system: C57BL/6 mice; test: In vivo expression level of Luciferase-mRNA delivered by intravenous injection (bioluminescence imaging); conditions: mRNA-loaded nanoparticles, intravenous (tail vein), 5 μg Luciferase-mRNA, 6 hours; for Bioluminescence intensity / Fluorescence intensity of liver: compounds of Example 1
Method in brief: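 Lipid nanoparticles carrying 5 μg Luciferase-mRNA given by tail-vein injection to 6-8-week-old C57BL/6 mice. At 6 h, 3 mg D-luciferin i.p. in PBS; bioluminescence imaged 10 min later as the expression read-out.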

[4] = test system: C57BL/6 mice; test: In vivo expression level of Luciferase-mRNA delivered by intramuscular injection (bioluminescence imaging); conditions: mRNA-loaded nanoparticles, intramuscular (leg muscle), 5 μg Luciferase-mRNA, 6 hours
Method: Luciferase-mRNA was used as an mRNA model; and the cationic lipid analogues of Examples 1-5 were used to prepare drug-loaded nanoparticles according to the method of Example 6.
(§2) 100 μL of nanoparticles containing 5 μg Luciferase-mRNA or the drug-loaded nanoparticles prepared above were injected into the leg muscles of 6-8 week-old C57BL/6 mice, and 200 μL of 1×PBS solution containing 3 mg D-Luciferin potassium salt was intraperitoneally injected into the mice 6 hours later. After waiting for 10 minutes, an in vivo expression level of the mRNA was evaluated by bioluminescence imaging.

[5] = test system: C57BL/6 mice; test: In vivo expression level of Luciferase-mRNA delivered by intraperitoneal injection (bioluminescence imaging); conditions: mRNA-loaded nanoparticles, 5 μg Luciferase-mRNA, 6 hours
Method: as §1
as §2, with “200 μL” for “100 μL”, “were intraperitoneally” for “were”, “into” for “into the leg muscles of”, “vivo mRNA” for “vivo”, “the m-RNA” for “the mRNA”

| Compound | Fluorescence intensity of spleen ([3]; compounds of Example 2) | Local fluorescence intensity ([4]; compounds of Example 2) | Local fluorescence intensity ([4]; compounds of Example 1) | Fluorescence intensity of liver [3] | also measured |
| --- | --- | --- | --- | --- | --- |
| CCCCC/C=C\C/C=C\CCCCCCCC(=O)N(CCO)C(C(=O)NCCN(C)CCNC(=O)C(C(C)C)N(CCO)C(=O)CCCCCCC/C=C\C/C=C\CCCCC)C(C)C (stereo not drawn) [A1I4R22C18-2] | 1.47E+06 | 2.69E+05 |  |  | Diameter of the nanoparticles [1]: 133 ± 6 nm; PDI [1]: 0.17; Zeta potential [1]: −5.5 mV; encapsulation efficiency [1]: 62.1%; Fluorescence intensity of spleen [2]: 2.54E+05; Fluorescence intensity of spleen [5]: 6.48E+06 |
| CCCCCCCCCCSSCCC(=O)N(CCO)C(C(=O)NCCN(CCNC(=O)C(C(C)C)N(CCO)C(=O)CCSSCCCCCCCCCC)CCNC(=O)C(C(C)C)N(CCO)C(=O)CCSSCCCCCCCCCC)C(C)C (stereo not drawn) [A1I5R22S15] |  |  |  |  | Diameter of the nanoparticles [1]: 144 ± 7 nm; PDI [1]: 0.22; Zeta potential [1]: −7.2 mV; encapsulation efficiency [1]: 65.4%; Fluorescence intensity of spleen ([3]; compounds of Example 3): 3.40E+06; Local fluorescence intensity ([4]; compounds of Example 3): 1.50E+06 |
| CCCCC/C=C\C/C=C\CCCCCCCC(=O)N(CCN(CCN(C(=O)CCCCCCC/C=C\C/C=C\CCCCC)C(C(=O)NCC(=O)OCC)C(C)C)CCN(C(=O)CCCCCCC/C=C\C/C=C\CCCCC)C(C(=O)NCC(=O)OCC)C(C)C)C(C(=O)NCC(=O)OCC)C(C)C (stereo not drawn) [A1I32R47C18-2] |  |  |  |  | Diameter of the nanoparticles [1]: 150 ± 9 nm; PDI [1]: 0.21; Zeta potential [1]: −3.1 mV; encapsulation efficiency [1]: 60.5%; Fluorescence intensity of spleen ([3]; compounds of Example 5): 8.50E+03; Local fluorescence intensity ([4]; compounds of Example 5): 3.68E+04 |
| CCCCCCCC/C=C\CCCCCCCC(=O)N(CCCN(CC)CC)C(C(=O)NCCCCCCCCCCCCCCCCCC)C(CC)CCCC (stereo not drawn) [A4I18R3C18-1] |  |  | 1.77E+07 |  | Bioluminescence intensity [3]: 1.39E+07 |
| CCCCC/C=C\C/C=C\CCCCCCCC(=O)N(CCCN(CC)CC)C(C(=O)NCCCCCCCCCCCCCCCCCC)C(CC)CCCC (stereo not drawn) [A4I18R3C18-2] |  |  | 3.08E+07 |  | Diameter of the nanoparticles [1]: 83 ± 9 nm; PDI [1]: 0.12; Zeta potential [1]: −3.2 mV; encapsulation efficiency [1]: 75.3%; Bioluminescence intensity [3]: 2.29E+07 |
| CCCCC/C=C\C/C=C\CCCCCCCC(=O)N(CCCN1CCOCC1)C(C(=O)NCCCCCCCCCCCCCCCCCC)C(CC)CCCC (stereo not drawn) [A4I18R5C18-2] |  |  | 4.99E+05 | 8.34E+03 |  |
| CCCCCCCCCCCCCCCCCCNC(=O)C(C(CC)CCCC)N(CCCN1CCOCC1)C(=O)CCCCCCCCCCCCCCCCC (stereo not drawn) [A4I18R5C18] |  |  | 4.33E+05 | 2.68E+03 |  |
| CCCCC/C=C\C/C=C\CCCCCCCC(=O)N(CCN1CCCCC1)C(C(=O)NCCCCCCCCCCCCCCCCCC)C(CC)CCCC (stereo not drawn) [A4I18R12C18-2] |  |  | 2.60E+05 | 9.22E+03 |  |
| CCCCCCCCCCCCCCCCCCNC(=O)C(C(CC)CCCC)N(CCN1CCCCC1)C(=O)CCCCCCCCCCCCCCCCC (stereo not drawn) [A4I18R12C18] |  |  | 1.75E+05 | 2.31E+03 |  |
| CCCCCCCC/C=C\CCCCCCCC(=O)N(CCO)C(C(=O)NCCN(C)CCNC(=O)C(C1CCCCC1)N(CCO)C(=O)CCCCCCC/C=C\CCCCCCCC)C1CCCCC1 (stereo not drawn) [A23I4R22C18-1] | 6.57E+05 | 1.41E+05 |  |  |  |
| CCCCC/C=C\C/C=C\CCCCCCCC(=O)N(CCO)C(C(=O)NCCN(C)CCNC(=O)C(C1CCCCC1)N(CCO)C(=O)CCCCCCC/C=C\C/C=C\CCCCC)C1CCCCC1 (stereo not drawn) [A23I4R22C18-2] | 6.10E+05 | 9.09E+05 |  |  |  |
| CCCCCCCCCCCCCCCCCC(=O)N(CCO)C(C(=O)NCCN(C)CCNC(=O)C(C1CCCCC1)N(CCO)C(=O)CCCCCCCCCCCCCCCCC)C1CCCCC1 (stereo not drawn) [A23I4R22C18] | 4.61E+05 | 3.41E+04 |  |  |  |
| CCCCCCCC/C=C\CCCCCCCC(=O)N(CCOC)C(C(=O)NCCN(C)CCNC(=O)C(C1CCCCC1)N(CCOC)C(=O)CCCCCCC/C=C\CCCCCCCC)C1CCCCC1 (stereo not drawn) [A23I4R23C18-1] | 2.96E+05 | 5.87E+06 |  |  |  |
| CCCCCCCCCCCCCCCCCC(=O)N(CCOC)C(C(=O)NCCN(C)CCNC(=O)C(C1CCCCC1)N(CCOC)C(=O)CCCCCCCCCCCCCCCCC)C1CCCCC1 (stereo not drawn) [A23I4R23C18] | 1.49E+05 | 5.32E+05 |  |  |  |
| CCCCC/C=C\C/C=C\CCCCCCCC(=O)N(CCCN(C)C)C(C(=O)NCCCCCCCCCCCCCCCCCC)C1CCCCC1 (stereo not drawn) [A23I18R2C18-2] |  |  | 7.16E+05 | 1.52E+06 |  |
| CCCCCCCCCCCCCCCCCCNC(=O)C(C1CCCCC1)N(CCCN(C)C)C(=O)CCCCCCCCCCCCCCCCC (stereo not drawn) [A23I18R2C18] |  |  | 4.83E+04 | 3.87E+05 |  |
| CCCCCCCCCCCCCCCCCCNC(=O)C(C1CCCCC1)N(CCCN1CCOCC1)C(=O)CCCCCCCCCCCCCCCCC (stereo not drawn) [A23I18R5C18] |  |  | 9.13E+04 | 1.85E+03 |  |
| CCCCC/C=C\C/C=C\CCCCCCCC(=O)N(CCN1CCCCC1)C(C(=O)NCCCCCCCCCCCCCCCCCC)C1CCCCC1 (stereo not drawn) [A23I18R12C18-2] |  |  | 2.01E+06 | 6.30E+03 |  |
